US6355616B1, “Derivative compounds derived from or based on bactericidal/permeability-increasing protein” (priority 1999, dated 2002)

Legend:
[1] = test system: Candida albicans SLU-1; assay: Radial diffusion assay; assay type: cell-based; conditions: 30 mm^2 area of growth inhibition, calculated by PROBIT analysis
Method: In the radial diffusion assay procedures, the CA-1 cultures and derivatized peptide solutions were prepared as in the broth microdilution assay procedure described above, i.e., CA-1 was grown to exponential phase in SDB. Ten (10) mL of molten underlayer agarose comprising 3% Sabouraud Dextrose broth, 1% agarose (Pharmacia, Piscataway, N.J.), 0.02% Tween 20, and 10 mM sodium phosphate at pH 7.4, was added to polystyrene tubes and maintained in a 56° C. water bath until the addition of yeast. Tubes were cooled to approximately 45° C., yeast were added to give a final concentration of 1×10^6 CFU/mL, and the tubes were mixed again by inverting. The contents were poured into leveled, square petri dishes and distributed evenly. […] A series of wells were punched into the hardened agarose using a sterile 3 mm punch attached to a vacuum apparatus to achieve a uniform, 3 mm diameter well.
Derivatized peptide sequences to be assayed were 2-fold serially diluted in 10 mM Dulbecco's PBS (D-PBS) starting from a concentration of approximately […]. Five μL of each dilution were added to each well and the plates were incubated at 37° C. for 3 hours to allow for complete diffusion of the test compounds. An overlayer of 10 mL of molten agarose comprising 6% Sabouraud Dextrose broth, 1% agarose, and 10 mM sodium phosphate, pH 7.4, (at approximately 45° C.) was then added and plates were incubated overnight at 37° C. Following this overnight incubation, a dilute Coomassie solution was poured into the plates and allowed to stain for 24 hours to enhance visualization of the zones.
Clear zones of growth inhibition around each well were measured with calipers. The actual area of growth inhibition (mm^2) was calculated by subtracting the area of the well. Table II below sets out the results of the radial diffusion assays for a series of tested peptide-based constructs in terms of the number of picomoles (pmol) of compound required to establish a 30 mm^2 area of growth inhibition of Candida albicans SLU-1 calculated by PROBIT analysis (e.g., calculated from regression of the linear portion of log-concentration dose-response curve, log pmol/well vs. net area of inhibition).

[2] = test system: Candida albicans, SLU-1; assay: 28-day comparative survival efficacy study in mice systemically infected with Candida albicans; assay type: in vivo, male DBA/2 mice; conditions: mice infected iv with C. albicans SLU-1; two doses less than 5 mg/kg; initial experiments (p>0.5)
Method: Derivatized peptide-based constructs are tested for activity upon oral administration (oral activity) in a 28-day comparative survival efficacy study in mice systemically infected with Candida albicans. Specifically, male DBA/2 mice (Charles River Laboratories) six weeks of age are dosed with 7.9×10^4 Candida albicans, SLU-1 in 100 μL intravenously via the tail vein in a single dosage on day zero (0). However, other routes of administration, including intraperitoneal (ip) and subcutaneous (sc) routes may be administered. Amphotericin B will provide complete protection at 0.5 mg/kg qod (100% survival). Mortality data will be subjected to Kaplan-Meier survival analysis. All treatment groups may be considered statistically significant vs. saline at p values <0.05.
Treatment begins immediately thereafter with 400 μL oral gavage of either 0.5% dextrose, or derivative compound in 0.5% dextrose at various dosage levels (e.g., 10 mg/kg or 20 mg/kg) according to a prescribed dosing regimen (e.g. every other day for a total of eight times). Amphotericin B (Fungizone®) is administered intravenously at 0.5 mg/kg as a positive control every other day for a total of eight times. Twice-day monitoring (once daily on weekends and holidays) for mortality is performed. The animals treated with antiflngal derivative compound show improvement in mortality compared with the dextrose-treated controls, preferably statistically significant improvement (p-value of […]).

Compound: CC[C@@H](C)[C@@H](NC(=O)[C@@H](CC(C)C)NC(=O)[C@@H](Cc1c[nH]c2ccccc12)NC(=O)[C@@H](CCCCN)NC(=O)c1ccccc1O)C(=O)N[C@H](CCC(N)=O)C(=O)N[C@H](CC(C)C)C(=O)N[C@H](Cc1ccccc1)C(=O)N[C@H](Cc1c[nH]cn1)C(=O)N[C@H](CCCCN)C(=O)N[C@H](CCCCN)C(N)=O [XMP.560]
- Radial Diffusion (pmol to achieve 30 mm^2 zone C. albicans SLU1) [1]: 451 pmol
- improvement in mortality compared with dextrose-treated controls [2]: did not exhibit statistically significant improvement
